Reference: ChEMBL document CHEMBL3414495, “Multi-target tacrine-coumarin hybrids: cholinesterase and monoamine oxidase B inhibition properties against Alzheimer's disease” (Eur J Med Chem, 2015)

Biological target: T1, Amine oxidase [flavin-containing] A (Homo sapiens, UniProt P21397)
T1 sequence (P21397 whole entry): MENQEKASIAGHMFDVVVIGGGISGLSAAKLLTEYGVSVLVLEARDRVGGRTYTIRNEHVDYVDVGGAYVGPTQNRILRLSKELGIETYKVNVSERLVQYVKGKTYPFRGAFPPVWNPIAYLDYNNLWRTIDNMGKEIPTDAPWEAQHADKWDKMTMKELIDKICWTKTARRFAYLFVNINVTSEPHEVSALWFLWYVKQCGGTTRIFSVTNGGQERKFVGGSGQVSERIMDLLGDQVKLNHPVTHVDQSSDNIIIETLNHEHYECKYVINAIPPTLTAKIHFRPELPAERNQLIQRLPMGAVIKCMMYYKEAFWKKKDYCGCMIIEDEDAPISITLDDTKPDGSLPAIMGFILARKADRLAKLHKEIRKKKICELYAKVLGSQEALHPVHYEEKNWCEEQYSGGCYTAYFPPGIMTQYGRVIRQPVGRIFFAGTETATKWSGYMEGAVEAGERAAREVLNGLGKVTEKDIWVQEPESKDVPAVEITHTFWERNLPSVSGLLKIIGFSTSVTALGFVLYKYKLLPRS
Experiment: Inhibition of human MAO-A using p-tyramine as substrate assessed as H2O2 production by amplex red assay
Conditions: not given

SMILES | IC50
O=c1ccc2ccc(OCCCCCN3CCN(CCCNc4c5c(nc6ccccc46)CCCC5)CC3)cc2o1 | 10.3 µM
O=c1ccc2ccc(OCCCCCCN3CCN(CCNc4c5c(nc6ccccc46)CCCC5)CC3)cc2o1 | 6.02 µM
Cc1c(Cl)c(=O)oc2cc(OCCN3CCN(CCCNc4c5c(nc6ccccc46)CCCC5)CC3)ccc12 | 53.1 µM
O=c1oc2cc(OCCN3CCN(CCCNc4c5c(nc6ccccc46)CCCC5)CC3)ccc2c2c1CCCC2 | 22 µM
O=c1ccc2ccc(OCCCCCCN3CCN(CCCNc4c5c(nc6ccccc46)CCCC5)CC3)cc2o1 | 6.05 µM

Biological target: T2, Amine oxidase [flavin-containing] B (Homo sapiens, UniProt P27338)
T2 sequence (P27338 whole entry): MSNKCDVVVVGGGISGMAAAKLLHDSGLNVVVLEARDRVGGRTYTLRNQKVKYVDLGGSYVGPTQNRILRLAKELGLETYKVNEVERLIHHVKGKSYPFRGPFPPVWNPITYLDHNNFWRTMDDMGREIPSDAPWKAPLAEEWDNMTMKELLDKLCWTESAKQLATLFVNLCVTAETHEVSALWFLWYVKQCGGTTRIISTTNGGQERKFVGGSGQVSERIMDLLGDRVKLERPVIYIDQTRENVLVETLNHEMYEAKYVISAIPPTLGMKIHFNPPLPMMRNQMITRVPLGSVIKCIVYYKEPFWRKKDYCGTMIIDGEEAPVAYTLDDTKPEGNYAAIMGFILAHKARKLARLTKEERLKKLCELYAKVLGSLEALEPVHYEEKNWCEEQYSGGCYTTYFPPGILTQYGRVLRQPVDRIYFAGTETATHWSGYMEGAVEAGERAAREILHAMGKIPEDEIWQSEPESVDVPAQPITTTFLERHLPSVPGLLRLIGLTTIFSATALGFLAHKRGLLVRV
Experiment: not given
Conditions: not given

SMILES | IC50
O=c1ccc2ccc(OCCCCCN3CCN(CCCNc4c5c(nc6ccccc46)CCCC5)CC3)cc2o1 | 2290 nM
O=c1ccc2ccc(OCCCCCCN3CCN(CCNc4c5c(nc6ccccc46)CCCC5)CC3)cc2o1 | 5280 nM
Cc1c(Cl)c(=O)oc2cc(OCCN3CCN(CCCNc4c5c(nc6ccccc46)CCCC5)CC3)ccc12 | 700 nM
O=c1oc2cc(OCCN3CCN(CCCNc4c5c(nc6ccccc46)CCCC5)CC3)ccc2c2c1CCCC2 | 1520 nM
O=c1ccc2ccc(OCCCCCCN3CCN(CCCNc4c5c(nc6ccccc46)CCCC5)CC3)cc2o1 | 9510 nM

Species on record: Homo sapiens
Experiment: Selectivity index, ratio of IC50 for human MAO-A to IC50 for human MAO-B
Conditions: not given

SMILES | Ratio IC50
O=c1ccc2ccc(OCCCCCN3CCN(CCCNc4c5c(nc6ccccc46)CCCC5)CC3)cc2o1 | 4.52
O=c1ccc2ccc(OCCCCCCN3CCN(CCNc4c5c(nc6ccccc46)CCCC5)CC3)cc2o1 | 1.14
Cc1c(Cl)c(=O)oc2cc(OCCN3CCN(CCCNc4c5c(nc6ccccc46)CCCC5)CC3)ccc12 | 75.7
O=c1oc2cc(OCCN3CCN(CCCNc4c5c(nc6ccccc46)CCCC5)CC3)ccc2c2c1CCCC2 | 14.4
O=c1ccc2ccc(OCCCCCCN3CCN(CCCNc4c5c(nc6ccccc46)CCCC5)CC3)cc2o1 | 0.64

Biological target: Acetylcholinesterase (Homo sapiens, UniProt P22303)
Experiment: Inhibition of human AChE using acetylthiocholine iodide as substrate incubated for 6 mins prior to substrate addition measured after 60 to 180 secs by Ellman method
Conditions: not given

Chain of Acetylcholinesterase (Homo sapiens, UniProt P22303) (P22303 whole entry): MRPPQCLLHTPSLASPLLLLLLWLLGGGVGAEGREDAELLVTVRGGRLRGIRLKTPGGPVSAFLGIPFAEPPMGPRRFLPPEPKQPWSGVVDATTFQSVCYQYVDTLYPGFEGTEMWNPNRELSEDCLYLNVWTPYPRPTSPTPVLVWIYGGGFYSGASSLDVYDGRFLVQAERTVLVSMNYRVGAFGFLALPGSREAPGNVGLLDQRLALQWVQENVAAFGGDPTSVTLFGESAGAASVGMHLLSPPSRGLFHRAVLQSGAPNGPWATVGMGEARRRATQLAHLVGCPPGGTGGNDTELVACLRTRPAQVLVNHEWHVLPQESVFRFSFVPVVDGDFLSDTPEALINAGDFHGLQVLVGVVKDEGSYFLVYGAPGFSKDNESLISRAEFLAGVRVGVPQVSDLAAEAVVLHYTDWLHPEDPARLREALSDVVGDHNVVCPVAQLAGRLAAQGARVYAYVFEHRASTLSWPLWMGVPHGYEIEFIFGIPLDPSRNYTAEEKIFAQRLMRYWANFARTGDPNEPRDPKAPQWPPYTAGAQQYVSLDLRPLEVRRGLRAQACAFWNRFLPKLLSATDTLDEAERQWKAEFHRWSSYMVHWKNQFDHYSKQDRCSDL

SMILES | IC50
Cc1c(Cl)c(=O)oc2cc(OCCN3CCN(CCCNc4c5c(nc6ccccc46)CCCC5)CC3)ccc12 | 24.4 nM

Biological target: Cholinesterase (Homo sapiens, UniProt P06276)
Experiment: Inhibition of human BuChE using S-butyrylthiocholine iodide as substrate incubated for 6 mins prior to substrate addition measured after 60 to 180 secs by Ellman method
Conditions: not given

Chain of Cholinesterase (Homo sapiens, UniProt P06276) (P06276 whole entry): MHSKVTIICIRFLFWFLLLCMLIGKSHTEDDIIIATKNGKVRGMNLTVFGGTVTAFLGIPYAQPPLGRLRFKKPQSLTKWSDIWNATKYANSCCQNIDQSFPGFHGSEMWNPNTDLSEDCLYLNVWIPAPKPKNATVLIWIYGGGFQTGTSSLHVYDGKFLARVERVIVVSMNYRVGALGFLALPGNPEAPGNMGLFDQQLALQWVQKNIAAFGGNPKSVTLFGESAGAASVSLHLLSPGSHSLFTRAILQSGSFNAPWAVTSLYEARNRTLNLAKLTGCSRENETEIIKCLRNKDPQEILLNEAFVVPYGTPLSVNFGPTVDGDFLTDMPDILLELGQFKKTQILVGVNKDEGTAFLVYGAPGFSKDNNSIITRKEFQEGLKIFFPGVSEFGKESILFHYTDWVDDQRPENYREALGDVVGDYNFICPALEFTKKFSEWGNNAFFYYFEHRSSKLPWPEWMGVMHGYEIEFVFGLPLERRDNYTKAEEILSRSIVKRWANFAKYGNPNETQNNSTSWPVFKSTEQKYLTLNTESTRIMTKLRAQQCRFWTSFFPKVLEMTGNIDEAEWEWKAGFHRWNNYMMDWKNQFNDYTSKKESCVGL

SMILES | IC50
Cc1c(Cl)c(=O)oc2cc(OCCN3CCN(CCCNc4c5c(nc6ccccc46)CCCC5)CC3)ccc12 | 124 nM

Biological target: Acetylcholinesterase (Electrophorus electricus, UniProt O42275)
Experiment: not given
Conditions: not given

Chain of Acetylcholinesterase (Electrophorus electricus, UniProt O42275) (O42275 whole entry): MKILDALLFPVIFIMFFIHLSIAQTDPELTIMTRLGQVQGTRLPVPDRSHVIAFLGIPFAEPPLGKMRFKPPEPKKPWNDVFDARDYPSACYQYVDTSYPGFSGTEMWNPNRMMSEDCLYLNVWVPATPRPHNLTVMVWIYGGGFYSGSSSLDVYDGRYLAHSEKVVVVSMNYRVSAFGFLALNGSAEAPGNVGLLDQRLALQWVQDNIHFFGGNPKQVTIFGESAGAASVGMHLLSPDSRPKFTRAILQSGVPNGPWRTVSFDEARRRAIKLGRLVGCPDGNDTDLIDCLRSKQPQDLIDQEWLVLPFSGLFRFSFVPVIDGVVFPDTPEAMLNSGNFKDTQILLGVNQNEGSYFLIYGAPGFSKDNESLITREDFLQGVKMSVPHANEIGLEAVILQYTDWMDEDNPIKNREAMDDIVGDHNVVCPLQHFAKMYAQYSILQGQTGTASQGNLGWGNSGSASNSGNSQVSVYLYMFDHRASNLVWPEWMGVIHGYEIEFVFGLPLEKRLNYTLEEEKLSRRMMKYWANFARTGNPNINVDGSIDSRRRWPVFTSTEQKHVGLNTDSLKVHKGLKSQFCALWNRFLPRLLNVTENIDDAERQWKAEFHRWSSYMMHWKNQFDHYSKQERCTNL

SMILES | IC50
O=c1ccc2ccc(OCCCCCN3CCN(CCCNc4c5c(nc6ccccc46)CCCC5)CC3)cc2o1 | 48.4 nM
O=c1ccc2ccc(OCCCCCCN3CCN(CCNc4c5c(nc6ccccc46)CCCC5)CC3)cc2o1 | 330 nM
Cc1c(Cl)c(=O)oc2cc(OCCN3CCN(CCCNc4c5c(nc6ccccc46)CCCC5)CC3)ccc12 | 31.9 nM
O=c1oc2cc(OCCN3CCN(CCCNc4c5c(nc6ccccc46)CCCC5)CC3)ccc2c2c1CCCC2 | 144 nM
O=c1ccc2ccc(OCCCCCCN3CCN(CCCNc4c5c(nc6ccccc46)CCCC5)CC3)cc2o1 | 66.2 nM

Biological target: Cholinesterase (Equus caballus, UniProt P81908)
Experiment: not given
Conditions: not given

Chain of Cholinesterase (Equus caballus, UniProt P81908) (P81908 whole entry): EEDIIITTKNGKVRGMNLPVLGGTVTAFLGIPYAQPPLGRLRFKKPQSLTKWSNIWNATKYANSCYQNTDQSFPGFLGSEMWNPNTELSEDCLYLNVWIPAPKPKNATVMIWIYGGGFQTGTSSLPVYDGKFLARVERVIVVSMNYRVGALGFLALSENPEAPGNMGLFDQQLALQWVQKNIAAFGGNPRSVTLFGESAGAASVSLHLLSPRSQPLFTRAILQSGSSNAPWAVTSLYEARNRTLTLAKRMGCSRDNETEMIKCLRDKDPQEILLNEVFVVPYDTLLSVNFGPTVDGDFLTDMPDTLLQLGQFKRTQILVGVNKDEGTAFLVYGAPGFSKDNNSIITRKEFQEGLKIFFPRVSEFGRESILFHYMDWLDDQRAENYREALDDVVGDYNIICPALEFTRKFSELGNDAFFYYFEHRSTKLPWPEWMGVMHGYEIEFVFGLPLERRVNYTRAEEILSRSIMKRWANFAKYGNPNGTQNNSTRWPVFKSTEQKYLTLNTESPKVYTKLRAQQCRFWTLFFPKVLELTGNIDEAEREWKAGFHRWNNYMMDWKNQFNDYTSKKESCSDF

SMILES | IC50
O=c1ccc2ccc(OCCCCCN3CCN(CCCNc4c5c(nc6ccccc46)CCCC5)CC3)cc2o1 | 41.8 nM
O=c1ccc2ccc(OCCCCCCN3CCN(CCNc4c5c(nc6ccccc46)CCCC5)CC3)cc2o1 | 58.6 nM
Cc1c(Cl)c(=O)oc2cc(OCCN3CCN(CCCNc4c5c(nc6ccccc46)CCCC5)CC3)ccc12 | 72.6 nM
O=c1oc2cc(OCCN3CCN(CCCNc4c5c(nc6ccccc46)CCCC5)CC3)ccc2c2c1CCCC2 | 159 nM
O=c1ccc2ccc(OCCCCCCN3CCN(CCCNc4c5c(nc6ccccc46)CCCC5)CC3)cc2o1 | 38.5 nM

Test system: not listed separately
Experiment: in vitro
Conditions: PAMPA
Description: Permeability of the compound after 16 hrs by PAMPA

SMILES | Papp at 16 h
O=c1ccc2ccc(OCCCCCN3CCN(CCCNc4c5c(nc6ccccc46)CCCC5)CC3)cc2o1 | 2.37 ×10⁻⁶ cm/s
O=c1ccc2ccc(OCCCCCCN3CCN(CCNc4c5c(nc6ccccc46)CCCC5)CC3)cc2o1 | 6.96 ×10⁻⁶ cm/s
Cc1c(Cl)c(=O)oc2cc(OCCN3CCN(CCCNc4c5c(nc6ccccc46)CCCC5)CC3)ccc12 | 5.37 ×10⁻⁶ cm/s
O=c1oc2cc(OCCN3CCN(CCCNc4c5c(nc6ccccc46)CCCC5)CC3)ccc2c2c1CCCC2 | 3.01 ×10⁻⁶ cm/s
O=c1ccc2ccc(OCCCCCCN3CCN(CCCNc4c5c(nc6ccccc46)CCCC5)CC3)cc2o1 | 3.4 ×10⁻⁶ cm/s
